Assay results from patent US20240374764A1, “COMBINATION RADIOTHERAPY” (Telix Pharmaceuticals (Innovations) Pty Ltd., priority 2021, published 2024).

How the values were obtained:
DNA-PK = DNA-PK (Homo sapiens, UniProt P78527); conditions: as demonstrated by crystallographic and enzyme kinetics studies; cited from earlier work
SK-RC-52 xenografts [1] = experiment: In vivo efficacy in SK-RC-52 metastatic renal cell carcinoma xenograft model; set-up: species or system Female BALB/c nude mice; conditions: number of mice (% of group, n=4) at conclusion of study; 177Lu antibody 6 MBq single i.v. dose day 0; M3814 50 mg/kg oral daily where combined
Source text: Tumour growth curves were monitored in mice for up to 6 months or ethical limits.

SK-RC-52 xenografts [2] = conditions: mouse, in vivo
Method: Female BALB/c nude mice with established SK-RC-52 xenografts (approx. 100 mm^3) were used for this study. Mice were split into one of the following 3 groups: • Vehicle control (oral) n=4; • ^177Lu-anti-CAIX antibody only (DOTA-GmAb, as described herein; 162 μCi/6 MBq) n=4; • 50 mg/kg M3814 DNA-PKi orally dosed and ^177Lu-anti-CAIX antibody (162 μCi/6 MBq) n=4.
Animals were treated as follows: • Day −14: injection of 60 female mice with RK-RC-52 metastatic RCC cells in matrigel; • Day 0: ^177Lu-anti-CAIX antibody i.v. administration, single dose once only • Day 1-7: daily oral dosing of vehicle/M3814 @ 50 mg/kg.
SPECT/MRI imaging was conducted at days 3 and 6 to determine biodistribution.

[3] = previous clinical studies, cited from earlier work

COc1ccc([C@@H](O)c2cc(-c3ncnc4cc(N5CCOCC5)ccc34)c(F)cc2Cl)nn1 [M3814, (S)-[2-chloro-4-fluoro-5-(7-morpholin-4-yl-quinazolin-4-yl)-phenyl]-(6-methoxypyridazin-3-yl)-methanol]
inhibition of DNA-PK (mode, potency, selectivity) (DNA-PK): potent and selective ATP-competitive inhibitor of DNA-PK

^177Lu-anti-CAIX antibody: 177Lu-labelled DOTA conjugate of the anti-CAIX antibody GmAb (girentuximab)
Complete Remission (SK-RC-52 xenografts [1]): 1 (25%) | Progressive Disease (SK-RC-52 xenografts [1]): 3 (75%) | SPECT imaging: delivery of radiation to the tumour (SK-RC-52 xenografts [2]): specifically delivers cytotoxic radiation to the tumour over a prolonged period

^177Lu-girentuximab: chimeric monoclonal antibody girentuximab (cG250, TLX250) specific for CAIX, radiolabelled with lutetium-177 via a DOTA linker
MTD ([3]; single agent): 2405 MBq/m^2 | tolerability of follow on dosing at 75% of the previous dose [3]: well tolerated
